Laboratory results: ChEMBL document CHEMBL1201862, “PubChem BioAssay data set” (2004)
Activity calls are given as the source filed them.

Tests used:
[1] = cytotoxicity toward DRD oncogenic fibroblasts, dose response, cell-based, non-viral oncogenic, luminescence (AID 1934); type: functional; conditions: Homo sapiens
[2] = test system: BJ; experiment: cytotoxicity toward BJ-TERT fibroblasts, dose response, cell-based, RAS-independent, luminescence (AID 1933); type: functional; conditions: Homo sapiens
[3] = test system: BJ; experiment: cytotoxicity toward Ras-transformed BJeLR fibroblasts, dose response, cell-based, alamar blue fluorescence, cherrypicked samples (AID 2631); type: functional; conditions: Homo sapiens;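 further: confirmatory dose-response assay in RAS-dependent BJ fibroblasts engineered with TERT, LT and ST, with cytotoxicity read by fluorescence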
[4] = target: T1, DNA repair protein RAD52 homolog (Homo sapiens, UniProt P43351); type: functional, biochemical
T1 sequence (P43351 whole entry): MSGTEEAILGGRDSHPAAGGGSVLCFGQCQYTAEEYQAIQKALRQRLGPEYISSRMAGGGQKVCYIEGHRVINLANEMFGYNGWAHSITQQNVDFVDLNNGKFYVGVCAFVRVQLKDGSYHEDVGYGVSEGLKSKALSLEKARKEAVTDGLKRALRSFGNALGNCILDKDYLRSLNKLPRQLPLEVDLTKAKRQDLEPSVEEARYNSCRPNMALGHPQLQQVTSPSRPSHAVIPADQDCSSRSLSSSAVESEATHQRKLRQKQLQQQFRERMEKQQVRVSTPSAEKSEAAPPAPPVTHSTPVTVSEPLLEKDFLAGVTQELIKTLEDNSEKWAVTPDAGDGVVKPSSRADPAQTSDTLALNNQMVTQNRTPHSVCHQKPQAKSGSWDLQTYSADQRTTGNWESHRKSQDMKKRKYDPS

[5] = test system: BJ; experiment: cells; type: functional, cell-based; conditions: Homo sapiens
[6] = test system: INS1; experiment: beta cell apoptosis inhibitors, cytokine rescue, dose response, luminescence, retest (AID 449756); type: functional, cell-based; conditions: Rattus norvegicus;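 further: cell death triggered by IL-1 beta plus TNF-alpha plus IFN-gamma mixture; protective hits raise ATP signal compared with cytokine alone wells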
[7] = target: DNA dC->dU-editing enzyme APOBEC-3A (Homo sapiens, UniProt P31941); experiment: Dose Response confirmation of small molecule APOBEC3A DNA Deaminase Inhibitors via a fluorescence-based single-stranded DNA deaminase assay. [Related pubchem assays (depositor defined):AID493011, AID493024]; type: functional
[8] = HepG2 cell cytotoxicity, dose response, cytotoxicity control for Shn3 inhibitor project, CellTiter-Glo, cherry-picked (AID 624134); type: functional, cell-based
[9] = target: DNA dC->dU-editing enzyme APOBEC-3G (Homo sapiens, UniProt Q9HC16); type: functional;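 further: Dose-response counterscreen measuring inhibition of APOBEC3G DNA deaminase activity, run while confirming APOBEC3A inhibitors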
[10] = control 3'UTR Renilla luciferase suppression, dose response, counter-screen for Shn3 inhibitor project, cell-based, Clone20-Shn3RL, cherry-picked (AID 624133); type: functional
[11] = test system: BJ; experiment: cytotoxicity toward BJ-TERT-LT-ST fibroblasts, dose response, cell-based, RAS-independent, luminescence (AID 1935); type: functional; conditions: Homo sapiens;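 further: BJ fibroblasts immortalized with TERT plus LT and ST oncogenes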
[12] = target: T2, Short transient receptor potential channel 4 (Mus musculus, UniProt Q9QUQ5); experiment: mouse TRPC4 channel inhibitors, dose response, cell-based, HEK293 TRPC4/mu-opioid, Fluo-4 calcium (AID 434942); type: functional;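 further: potency of inhibitors blocking the TRPC4 calcium response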
T2 sequence (Q9QUQ5 whole entry): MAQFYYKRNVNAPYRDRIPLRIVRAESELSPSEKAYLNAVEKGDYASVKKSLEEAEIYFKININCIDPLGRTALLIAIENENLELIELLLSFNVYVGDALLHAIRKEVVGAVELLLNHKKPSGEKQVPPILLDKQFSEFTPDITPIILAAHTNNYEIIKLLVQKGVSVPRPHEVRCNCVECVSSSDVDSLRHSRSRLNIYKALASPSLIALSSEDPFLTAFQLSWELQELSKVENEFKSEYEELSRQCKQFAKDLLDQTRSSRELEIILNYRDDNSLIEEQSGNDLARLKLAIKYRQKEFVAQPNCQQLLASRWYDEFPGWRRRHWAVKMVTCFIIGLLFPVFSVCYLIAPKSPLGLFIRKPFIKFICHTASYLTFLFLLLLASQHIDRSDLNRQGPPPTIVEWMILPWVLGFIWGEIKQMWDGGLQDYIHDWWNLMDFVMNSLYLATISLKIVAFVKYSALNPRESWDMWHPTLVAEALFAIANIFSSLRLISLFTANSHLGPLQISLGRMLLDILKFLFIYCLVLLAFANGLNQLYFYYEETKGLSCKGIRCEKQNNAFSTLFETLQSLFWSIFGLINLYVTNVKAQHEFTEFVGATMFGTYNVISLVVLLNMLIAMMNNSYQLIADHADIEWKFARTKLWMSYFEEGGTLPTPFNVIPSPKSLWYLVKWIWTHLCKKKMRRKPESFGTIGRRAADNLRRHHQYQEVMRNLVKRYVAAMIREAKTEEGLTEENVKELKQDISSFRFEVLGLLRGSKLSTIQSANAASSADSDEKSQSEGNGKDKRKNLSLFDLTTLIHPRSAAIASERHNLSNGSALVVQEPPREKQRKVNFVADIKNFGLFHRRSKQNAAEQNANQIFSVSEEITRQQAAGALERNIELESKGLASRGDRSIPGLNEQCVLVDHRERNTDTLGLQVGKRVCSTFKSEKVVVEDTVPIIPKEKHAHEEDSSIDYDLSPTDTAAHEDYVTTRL

[13] = target: T3, DNA repair and recombination protein RAD54-like (Homo sapiens, UniProt Q92698); experiment: inhibitors of human RAD54 branch migration, confirmation, biochemical, fluorescence, cherry-picked samples, dose series (AID 651657); type: functional
T3 sequence (Q92698 whole entry): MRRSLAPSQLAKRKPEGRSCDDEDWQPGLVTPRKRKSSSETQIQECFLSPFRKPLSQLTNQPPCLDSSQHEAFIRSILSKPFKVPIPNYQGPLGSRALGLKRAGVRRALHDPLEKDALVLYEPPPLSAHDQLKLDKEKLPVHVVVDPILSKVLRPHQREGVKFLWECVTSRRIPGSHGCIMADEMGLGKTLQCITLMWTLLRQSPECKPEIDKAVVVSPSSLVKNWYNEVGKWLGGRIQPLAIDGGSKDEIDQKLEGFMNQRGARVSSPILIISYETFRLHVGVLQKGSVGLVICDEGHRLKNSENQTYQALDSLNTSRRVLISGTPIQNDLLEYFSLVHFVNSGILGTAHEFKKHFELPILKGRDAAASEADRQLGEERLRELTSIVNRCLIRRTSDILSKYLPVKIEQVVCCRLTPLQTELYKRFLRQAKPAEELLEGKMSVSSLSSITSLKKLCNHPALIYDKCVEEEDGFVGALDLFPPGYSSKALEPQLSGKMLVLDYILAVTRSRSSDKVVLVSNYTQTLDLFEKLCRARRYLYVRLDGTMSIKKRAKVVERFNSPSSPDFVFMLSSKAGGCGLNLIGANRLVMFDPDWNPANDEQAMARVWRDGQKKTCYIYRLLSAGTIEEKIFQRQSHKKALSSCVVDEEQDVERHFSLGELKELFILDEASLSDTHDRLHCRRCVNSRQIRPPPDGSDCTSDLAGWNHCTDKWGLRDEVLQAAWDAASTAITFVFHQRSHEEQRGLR

[14] = Shn3 3'UTR reporter inhibitors, dose response, cell-based, Clone20 osteoblasts, firefly luciferase, cherry-picked (AID 624132); type: functional;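 further: firefly luciferase luminescence from reporter carrying the Shn3 3'UTR in osteoblasts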
[15] = AlphaScreen signal interference compounds, dose response, artefact control for ARNT-TACC3 interaction inhibitor project, biochemical, luminescence, cherry-pick (AID 651705); type: functional;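 further: AlphaScreen bead proximity signal that flags compounds interfering with the detection technology; potency reflects signal decrease which marks the compound as an assay artifact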
[16] = human group III sPLA2 inhibitors, dose response, biochemical, QFRET, IC50 (AID 743457);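 further: green fluorescence rise as the enzyme cleaves BODIPY PC-A2 in liposomes; potency for inhibition of the enzyme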
[17] = target: T4, Probable nicotinate-nucleotide adenylyltransferase (Staphylococcus aureus (strain N315), UniProt P65502); type: functional, Staphylococcus aureus subsp. aureus N315;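 on IC50 Mean: confirmatory dose-response retesting of NadD inhibitor hits first found in an ultra-high-throughput screen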
[18] = target: T4, Probable nicotinate-nucleotide adenylyltransferase; type: functional, Staphylococcus aureus subsp. aureus N315; conditions: read-out: IC50_Mean
[19] = target: T5, Small ubiquitin-related modifier 1 (Homo sapiens, UniProt P63165); experiment: inhibitors of SUMO1 peptide binding, dose response, biochemical, fluorescence polarization, uHTS hits (AID 624382); type: functional; conditions: read-out: IC50_Mean
[20] = target: T5, Small ubiquitin-related modifier 1; experiment: inhibitors of SUMO1 partner interactions, dose response, biochemical, FRET (AID 624383); type: functional; conditions: read-out: IC50_Mean

T4 sequence (P65502 whole entry): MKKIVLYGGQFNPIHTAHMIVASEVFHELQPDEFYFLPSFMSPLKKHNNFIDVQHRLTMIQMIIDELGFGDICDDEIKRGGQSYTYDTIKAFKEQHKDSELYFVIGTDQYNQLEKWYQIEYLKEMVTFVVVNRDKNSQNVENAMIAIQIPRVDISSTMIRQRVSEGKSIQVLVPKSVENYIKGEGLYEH
T5 sequence (P63165 whole entry): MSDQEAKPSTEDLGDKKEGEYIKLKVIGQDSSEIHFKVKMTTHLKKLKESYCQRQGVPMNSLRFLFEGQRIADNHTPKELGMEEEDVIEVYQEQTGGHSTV
Sequence of DNA dC->dU-editing enzyme APOBEC-3A (P31941 whole entry): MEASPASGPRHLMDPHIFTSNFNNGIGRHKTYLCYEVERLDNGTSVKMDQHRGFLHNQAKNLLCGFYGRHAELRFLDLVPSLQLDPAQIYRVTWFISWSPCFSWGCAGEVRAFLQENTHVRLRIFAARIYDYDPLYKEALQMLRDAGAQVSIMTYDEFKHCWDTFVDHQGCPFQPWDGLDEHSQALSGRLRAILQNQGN
Sequence of DNA dC->dU-editing enzyme APOBEC-3G (Q9HC16 whole entry): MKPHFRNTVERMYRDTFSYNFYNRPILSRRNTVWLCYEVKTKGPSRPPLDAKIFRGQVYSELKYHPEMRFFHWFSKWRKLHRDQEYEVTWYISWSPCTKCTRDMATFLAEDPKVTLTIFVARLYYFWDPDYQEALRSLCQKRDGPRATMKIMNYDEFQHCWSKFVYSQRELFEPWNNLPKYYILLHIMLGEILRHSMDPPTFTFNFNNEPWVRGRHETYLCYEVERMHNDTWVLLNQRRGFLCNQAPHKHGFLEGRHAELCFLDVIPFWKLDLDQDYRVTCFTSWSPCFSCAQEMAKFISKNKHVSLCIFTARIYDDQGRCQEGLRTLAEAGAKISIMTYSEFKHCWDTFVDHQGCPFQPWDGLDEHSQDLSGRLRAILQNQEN

Structure (SMILES): CN(C)CCCNc1c2ccccc2nc2ccccc12
- EC50 [1]: 4.72 µM (active)
- EC50 [2]: 1.92 µM (active)
- EC50 [3]: 0.454 µM (inconclusive)
- AC50 [4]: 0.271 µM (active)
- EC50 [5]: 3.21 µM (active)
- AC50 [6]: 0.533 µM (active)
- IC50 [7]: 18 µM (active)
- AC50 [8]: 7.82 µM (active)
- IC50 [9]: 58 µM (active)
- AC50 [10]: > 70 µM (inactive)
- EC50 [11]: 5.56 µM (active)
- EC50 [12]: 1.33 µM (active)
- AC50 [13]: 0.814 µM (active)
- AC50 [14]: 3.22 µM (active)

Structure (SMILES): COC(=O)c1ccc(CSc2ccc3nnc(-c4ccccn4)n3n2)o1
- AC50 [15]: 98.1 µM (active)

Structure (SMILES): Sc1nnc(COc2ccc(Cl)cc2)n1-c1ccccc1
- IC50 [16]: > 122 µM (inactive)

Structure (SMILES): O=C(NCc1ccco1)c1cccc2c1C(=O)c1ccc(/C=C/c3ccccc3)cc1S2(=O)=O
- IC50 [17]: 11.5 µM (active)
- IC50 [18]: 29.3 µM (active)

Structure (SMILES): COc1cc(CNCc2ccccn2)ccc1OCC(=O)NC(C)(C)C
- AC50 [15]: 90.6 µM (active)

Structure (SMILES): COc1cccc2sc(Nc3nc(-c4cc5ccccc5oc4=O)cs3)nc12
- IC50 [19]: > 66.6 µM (inactive)
- IC50 [20]: 2.42 µM (active)
